Consider six molecules from ChEMBL document CHEMBL1142607, “Haterumadysins A-D, sesquiterpenes from the Okinawan marine sponge Dysidea chlorea” (2006).

The term inhibition denotes how much of the control response was suppressed. Low values mean little suppression, high ones strong suppression.

Common to all, as to format: functional
The test system of assay [1] is Echinoidea. Kind of assay: (§1) Inhibition of cell division in fertilized sea urchin egg at 1 ppm.
Assay [2] is described as follows: as §1. Conditions: Echinoidea.
The test system of assay [3] is Echinoidea. As to the kind of experiment: Inhibition of cell division in fertilized sea urchin egg at 3 ppm.

Structures are written as SMILES. Activity calls are given as the source filed them. The rule behind the calls is not given here.

Consider `CC(=O)O[C@@H]1OC=C[C@]12CC1=C[C@@](C)(OO)CC[C@H]1C2(C)C`, for which, in the assay with Echinoidea [1], the result was Active.

`CC(=O)O[C@@H]1OC=C[C@]12CC1=C[C@](C)(OO)CC[C@H]1C2(C)C`: the outcome in the assay with Echinoidea [1] was Active.

In turn, `CC(=O)O[C@@H]1OC=C[C@]12C[C@H]1C=C(C)CC[C@H]1C2(C)C` [SPIRODYSIN] gave an inhibition at 1 ppm in assay [2] of 90%.

`CC(=O)O[C@@H]1OC=C[C@]12Cc1cc(C)ccc1C2(C)C`: in the assay with Echinoidea [1], the result was Active.

As to `CC1=C[C@@H]2C[C@]3(C=COC3=O)C(C)(C)[C@@H]2CC1`, the result in the assay with Echinoidea [3] was inactive.

For `CC(=O)O[C@@H]1OC=C[C@]12C=C1C=C(C)CC[C@H]1C2(C)C`, in the assay on Echinoidea [1], the result was Active.
